Laboratory results as given in patent publication US20250368628A1, “METHODS AND COMPOUNDS FOR MODULATING INHERITED GENETIC DISEASES” (Design Therapeutics, Inc., priority 2022, published 2025).
Where two headings read alike, the source gives them in different places.

How the values were obtained:
F35T cells = test: Foci reduction in FECD (CAG10-Cy3 FISH, foci per nucleus); format: cell-based
How it was run: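 F35T cells, 5000 per well, were treated for 48 h at 37 °C, 5% CO2 in an 8-point dose response. Cells were then fixed in 4% PFA, permeabilized in 70% ethanol and hybridized overnight at 37 °C with a CAG10-Cy3 probe in 30% formamide/2×SSC. After DAPI staining, imaging gave foci per nucleus.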

[1] = tested on: Myotonic Dystrophy 1 affected patient fibroblasts (Coriel GM04602; 1600 CTG repeats); test: DM1 foci reduction assay (EC50 assay; CAG10-Cy3 FISH, foci per nucleus); format: cell-based
How it was run: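 GM04602 DM1 patient fibroblasts (1600 CTG repeats) seeded 24 h, then treated 48 h at 37 °C with an 8-point 1:3 dose series from 3 μM. Cells PFA-fixed, ethanol-permeabilized and hybridized overnight with 5 nM CAG10-Cy3 probe, DAPI counterstained. Imaged at 20×, 4 fields per well, as average foci per nucleus.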

[2] = F35T cells, 48 h treatment, foci per nucleus; read-out: FECD EC50, 48 h
[3] = Homo sapiens, Fibroblast; DM1 patient fibroblasts, 48 h treatment, foci per nucleus; read-out: DM1 EC50, 48 h
[4] = F35T cells, foci per nucleus, 48 h treatment; read-out: FECD EC50, 48 h
[5] = Homo sapiens, Fibroblast; DM1 patient fibroblasts, foci per nucleus, 48 h treatment; read-out: DM1 EC50, 48 h

Compound	EC50 (F35T cells; [2]) [nM]	EC50 [1, 3] [nM]	EC50 (F35T cells; [4]) [nM]	EC50 [1, 5] [nM]
CCCNC(=O)CCNC(=O)c1nc(NC(=O)c2cc(NC(=O)CCNC(=O)c3nc(NC(=O)CCCNC(=O)c4cc(NC(=O)c5nc(NC(=O)CCNC(=O)c6cc(NC(=O)c7nccn7C)cn6C)cn5C)cn4CCOCCNC(=O)OC(C)(C)C)cn3C)cn2C)cn1C [Compound B-372]	< 100	< 100	–	–
COC(=O)c1cccc(C#CCCCN(C)CCCNC(=O)c2nc(NC(=O)c3cc(NC(=O)CCNC(=O)c4nc(NC(=O)CCCNC(=O)c5cc(NC(=O)c6nc(NC(=O)CCNC(=O)c7cc(NC(=O)c8nccn8C)cn7C)cn6C)cn5C)cn4C)cn3C)cn2C)c1 [Compound B-341]	< 100	< 100	–	–
COCCOCCOCCOCCN(CCOCCOCCOCCOC)C(=O)CCCCn1cc(NC(=O)c2nc(NC(=O)CCNC(=O)c3cc(NC(=O)c4nccn4C)cn3C)cn2C)cc1C(=O)NCCCC(=O)Nc1cn(C)c(C(=O)NCCC(=O)Nc2cc(C(=O)Nc3cn(C)c(C(=O)NCCC(=O)N4CCC(C#CC#CC5CCNCC5)CC4)n3)n(C)c2)n1 [Compound B-260]	100 to 500	100 to 500	–	–
Cn1cc(NC(=O)c2nc(NC(=O)CCNC(=O)c3cc(NC(=O)c4nccn4C)cn3C)cn2C)cc1C(=O)NCCCC(=O)Nc1cn(C)c(C(=O)NCCC(=O)Nc2cc(C(=O)Nc3cn(C)c(C(=O)NCCC(=O)NCCOCCOCCOCCOCCN4CCN(C5CCN(C(=O)OCc6ccccc6)CC5)CC4)n3)n(C)c2)n1 [Compound B-21]	100 to 500	100 to 500	–	–
CN(CCCC#Cc1cccc(C(=O)O)c1)CCCNC(=O)c1nc(NC(=O)c2cc(NC(=O)CCNC(=O)c3nc(NC(=O)CCCNC(=O)c4cc(NC(=O)c5nc(NC(=O)CCNC(=O)c6cc(NC(=O)c7nccn7C)cn6C)cn5C)cn4C)cn3C)cn2C)cn1C [Compound B-263]	< 100	100 to 500	–	–
Cn1cc(NC(=O)c2nc(NC(=O)CCNC(=O)c3cc(NC(=O)c4nccn4C)cn3C)cn2C)cc1C(=O)NCCCC(=O)Nc1cn(C)c(C(=O)NCCC(=O)Nc2cc(C(=O)Nc3cn(C)c(C(=O)NCCC(=O)NC(CO)CO)n3)n(C)c2)n1 [Compound B-333]	100 to 500	500 to 1000	–	–
CCCn1cc(NC(=O)c2nc(NC(=O)CCNC(=O)c3cc(NC(=O)c4nccn4C)cn3C)cn2C)cc1C(=O)NCCCC(=O)Nc1cn(C)c(C(=O)NCCC(=O)Nc2cc(C(=O)Nc3cn(C)c(C(=O)NCCC(=O)N4CCN(C)CC4)n3)n(C)c2)n1 [Compound B-429]	–	–	< 100	< 100
Cn1cc(NC(=O)c2nc(NC(=O)CCNC(=O)c3cc(NC(=O)c4nccn4C)cn3C)cn2C)cc1C(=O)NCCCC(=O)Nc1cn(C)c(C(=O)NCCC(=O)Nc2cc(C(=O)Nc3cn(C)c(C(=O)NCCC(=O)N4CCC(C#CC#CC5CCOCC5)CC4)n3)n(C)c2)n1 [Compound B-380]	< 100	< 100	–	–
Cn1cc(NC(=O)c2nc(NC(=O)CCNC(=O)c3cc(NC(=O)c4nccn4C)cn3C)cn2C)cc1C(=O)NCCCC(=O)Nc1cn(C)c(C(=O)NCCC(=O)Nc2cc(C(=O)Nc3cn(C)c(C(=O)NCCCN4CCNCC4)n3)n(C)c2)n1 [Compound B-207]	> 1000	100 to 500	–	–
CCCNC(=O)CCNC(=O)c1nc(NC(=O)c2cc(NC(=O)CCNC(=O)c3nc(NC(=O)CCCNC(=O)c4cc(NC(=O)c5nc(NC(=O)CCNC(=O)c6cc(NC(=O)c7nccn7C)cn6C)cn5C)cn4C)cn3C)cn2CCCCCCN)cn1C [Compound B-57]	500 to 1000	100 to 500	–	–
CN(C)CCCCn1cc(NC(=O)c2nc(NC(=O)CCNC(=O)c3cc(NC(=O)c4nccn4C)cn3C)cn2C)cc1C(=O)NCCCC(=O)Nc1cn(C)c(C(=O)NCCC(=O)Nc2cc(C(=O)Nc3cn(C)c(C(=O)NCCC(=O)N4CCCCC4)n3)n(C)c2)n1 [Compound B-428]	–	–	< 100	< 100
CN(C)CCCCNC(=O)c1nc(NC(=O)c2cc(NC(=O)CCNC(=O)c3nc(NC(=O)[C@H](N)CCNC(=O)c4cc(NC(=O)c5nc(NC(=O)CCNC(=O)c6cc(NC(=O)c7nccn7C)cn6C)cn5C)cn4C)cn3C)cn2C)cn1C [Compound B-410]	–	–	> 1000	500 to 1000
CN(CCCN)CCCNC(=O)c1nc(NC(=O)c2cc(NC(=O)CCNC(=O)c3nc(NC(=O)CCCNC(=O)c4cc(NC(=O)c5nc(NC(=O)CCNC(=O)c6cc(NC(=O)c7nccn7C)cn6C)cn5C)cn4CCCCCCN=[N+]=[N-])cn3C)cn2C)cn1C [Compound B-364]	> 1000	100 to 500	–	–
Cn1cc(NC(=O)c2nc(NC(=O)CCNC(=O)c3cc(NC(=O)c4nccn4C)cn3C)cn2C)cc1C(=O)NCCCC(=O)Nc1cn(C)c(C(=O)NCCC(=O)Nc2cc(C(=O)Nc3cn(C)c(C(=O)NCCC(=O)NCC#CC#Cc4ccc(N)cc4)n3)n(C)c2)n1 [Compound B-132]	< 100	< 100	–	–
CCCCCC(=O)N1CCC(C#CC#CC2CCN(CCOCCOCCOCCNC(=O)CCNC(=O)c3nc(NC(=O)c4cc(NC(=O)CCNC(=O)c5nc(NC(=O)CCCNC(=O)c6cc(NC(=O)c7nc(NC(=O)CCNC(=O)c8cc(NC(=O)c9nccn9C)cn8C)cn7C)cn6C)cn5C)cn4C)cn3C)CC2)CC1 [Compound B-171]	100 to 500	< 100	–	–
CN1CCN(C(=O)CCNC(=O)c2nc(NC(=O)c3cc(NC(=O)CCNC(=O)c4nc(NC(=O)CCCNC(=O)c5cc(NC(=O)c6nc(NC(=O)CCNC(=O)c7cc(NC(=O)c8nccn8C)cn7C)cn6C)cn5CCCCO)cn4C)cn3C)cn2C)CC1 [Compound B-427]	–	–	< 100	100 to 500
CCCCCn1cc(NC(=O)c2nc(NC(=O)CCNC(=O)c3cc(NC(=O)c4nccn4C)cn3C)cn2C)cc1C(=O)NCCCC(=O)Nc1cn(C)c(C(=O)NCCC(=O)Nc2cc(C(=O)Nc3cn(C)c(C(=O)NCCC(=O)NCCC)n3)n(C)c2)n1 [Compound B-322]	100 to 500	< 100	–	–
Cn1cc(NC(=O)c2nccn2C)cc1C(=O)NCCC(=O)Nc1cn(C)c(C(=O)Nc2cc(C(=O)NCC[C@@H](N)C(=O)Nc3cn(C)c(C(=O)NCCC(=O)Nc4cc(C(=O)Nc5cn(C)c(C(=O)NCCC(=O)N6CCC(C#CC#CC7CCNCC7)CC6)n5)n(C)c4)n3)n(C)c2)n1 [Compound B-407]	500 to 1000	100 to 500	–	–
CCCNC(=O)c1nc(NC(=O)c2cc(NC(=O)CCNC(=O)c3nc(NC(=O)C[C@@H](N)CNC(=O)c4cc(NC(=O)c5nc(NC(=O)CCNC(=O)c6cc(NC(=O)c7nccn7C)cn6C)cn5C)cn4C)cn3C)cn2C)cn1C [Compound B-421]	–	–	< 100	< 100
Cn1cc(NC(=O)c2nccn2C)cc1C(=O)NCCC(=O)Nc1cn(C)c(C(=O)Nc2cc(C(=O)NCCCC(=O)Nc3cn(C)c(C(=O)NCCC(=O)Nc4cc(C(=O)Nc5cn(C)c(C(=O)NCCC(=O)N6CCC(C#CC#CC7CCNCC7)CC6)n5)n(C)c4)n3)n(CCCCN)c2)n1 [Compound B-281]	< 100	< 100	–	–
Cn1cc(NC(=O)c2nc(NC(=O)CCNC(=O)c3cc(NC(=O)c4nccn4C)cn3C)cn2C)cc1C(=O)NCCCC(=O)Nc1cn(C)c(C(=O)NCCC(=O)Nc2cc(C(=O)Nc3cn(C)c(C(=O)NCCC(=O)NCCOCCOCCOCCOCCOc4ccc(N)cc4)n3)n(C)c2)n1 [Compound B-12]	100 to 500	100 to 500	–	–
Cn1cc(NC(=O)c2nc(NC(=O)CCNC(=O)c3cc(NC(=O)c4nccn4C)cn3C)cn2C)cc1C(=O)NCCCC(=O)Nc1cn(C)c(C(=O)NCCC(=O)Nc2cc(C(=O)Nc3cn(C)c(C(=O)NCCC(=O)NC4COP(=O)(O)OC4)n3)n(C)c2)n1 (centres unmarked) [Compound B-392]	> 1000	500 to 1000	–	–
Cn1cc(NC(=O)c2nccn2C)cc1C(=O)NCCC(=O)Nc1cn(C)c(C(=O)Nc2cc(C(=O)NCCCC(=O)Nc3cn(C)c(C(=O)NCCC(=O)Nc4cc(C(=O)Nc5cn(C)c(C(=O)NCCC(=O)N6CCC(C#CC#CC7CCNCC7)CC6)n5)n(C)c4)n3)n(CCCCCCN)c2)n1 [Compound B-256]	100 to 500	100 to 500	–	–
Cn1cc(NC(=O)c2nc(NC(=O)CCNC(=O)c3cc(NC(=O)c4nccn4C)cn3C)cn2C)cc1C(=O)NCCCC(=O)Nc1cn(C)c(C(=O)NCCC(=O)Nc2cc(C(=O)Nc3cn(C)c(C(=O)NCCC(=O)NCCOCCOCCOc4ccc(N)cc4)n3)n(C)c2)n1 [Compound B-14]	100 to 500	100 to 500	–	–
COCCOCCOCCOCCOCCOCCC(=O)NCCCCCCn1cc(NC(=O)c2nc(NC(=O)CCNC(=O)c3cc(NC(=O)c4nccn4C)cn3C)cn2C)cc1C(=O)NCCCC(=O)Nc1cn(C)c(C(=O)NCCC(=O)Nc2cc(C(=O)Nc3cn(C)c(C(=O)NCCC(=O)N4CCC(C#CC#CC5CCNCC5)CC4)n3)n(C)c2)n1 [Compound B-240]	< 100	100 to 500	–	–
CC(=O)N1CCC(CN2CCN(C(=O)CCNC(=O)c3nc(NC(=O)c4cc(NC(=O)CCNC(=O)c5nc(NC(=O)CCCNC(=O)c6cc(NC(=O)c7nc(NC(=O)CCNC(=O)c8cc(NC(=O)c9nccn9C)cn8C)cn7C)cn6C)cn5C)cn4C)cn3C)CC2)CC1 [Compound B-115]	500 to 1000	100 to 500	–	–
CCCNC(=O)CCNC(=O)c1nc(NC(=O)c2cc(NC(=O)CCNC(=O)c3nc(NC(=O)CCCNC(=O)c4cc(NC(=O)c5nc(NC(=O)CCNC(=O)c6cc(NC(=O)c7nccn7C)cn6C)cn5C)cn4CCCCCN(CCOCCOCCOCCOC)CCOCCOCCOCCOC)cn3C)cn2C)cn1C [Compound B-161]	100 to 500	500 to 1000	–	–
Cn1cc(NC(=O)c2nc(NC(=O)CCNC(=O)c3cc(NC(=O)c4nccn4C)cn3C)cn2C)cc1C(=O)NCCCC(=O)Nc1cn(C)c(C(=O)NCCC(=O)Nc2cc(C(=O)Nc3cn(C)c(C(=O)NCCC(=O)NCCCN4CCOCC4)n3)n(C)c2)n1 [Compound B-37]	100 to 500	100 to 500	–	–
